According to patent US20030114512A1, “Compounds with 5-ht2 and 5-ht1a agonist activity for treating glaucoma” (priority 2002, published 2003):
Where two headings read alike, the source gives them in different places.

What was measured:
[1] = molecular target: T1, 5-HT2 receptor (Rattus norvegicus, UniProt P14842); assay: 5-HT2 functional assay: phosphoinositide (PI) turnover; assay type: cell-based; conditions: for Emax: A7r5 cells, relative to 5-HT set at 100%, read-out: Efficacy (Emax, %) 5-HT2 functional; for EC50: [3H]inositol phosphates, A7r5 rat vascular smooth muscle cells, read-out: EC50, nM (SEM) 5-HT2 functional
T1 construct: A7r5 rat vascular smooth muscle cells; endogenous in cells; host or cells: A7r5 rat vascular smooth muscle cells
T1 sequence (P14842 whole entry): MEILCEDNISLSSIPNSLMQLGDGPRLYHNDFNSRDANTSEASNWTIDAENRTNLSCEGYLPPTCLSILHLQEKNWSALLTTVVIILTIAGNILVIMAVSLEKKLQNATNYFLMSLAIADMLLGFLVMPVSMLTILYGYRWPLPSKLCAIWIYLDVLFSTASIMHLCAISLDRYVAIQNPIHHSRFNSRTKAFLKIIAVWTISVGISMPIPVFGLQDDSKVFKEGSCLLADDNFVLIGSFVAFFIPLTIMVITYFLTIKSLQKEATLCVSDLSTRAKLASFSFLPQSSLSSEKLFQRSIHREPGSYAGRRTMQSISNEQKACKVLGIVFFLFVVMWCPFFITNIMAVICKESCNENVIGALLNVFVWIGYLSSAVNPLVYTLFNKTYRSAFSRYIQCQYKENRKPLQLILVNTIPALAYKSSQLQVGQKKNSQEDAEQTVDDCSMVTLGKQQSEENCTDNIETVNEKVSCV
Experimental: 5-HT2 Functional Assay: Phosphoinositide (PI) Turnover Assay
The relative agonist activity of serotonergic compounds at the 5-HT2 receptor can be determined in vitro using the ability of the compounds to stimulate the production of [^3H]inositol phosphates in [^3H]myo-inositol-labeled A7r5 rat vascular smooth muscle cells by their ability to activate the enzyme phospholipase C. These cells are grown in culture plates, maintained in a humidified atmosphere of 5% CO2 and 95% air and fed semi-weekly with Dulbecco's modified Eagle medium (DMEM) containing 4.5 g/l glucose and supplemented with 2 mM glutamine, 10 μg/ml gentamicin, and 10% fetal bovine serum. For the purpose of conducting the phosphoinositide (PI) turnover experiments, the A7r5 cells are cultured in 24-well plates as previously [J. Pharmacol. Expt. Ther., 286, 411 (1998)]. Confluent cells are exposed for 24-30 hrs to 1.5 μCi [^3H]-myo-inositol (18.3 Ci/mmol) in 0.5 ml of serum-free medium. Cells are then rinsed once with DMEM/F-12 containing 10 mM LiCl prior to incubation with the test agent (or solvent as the control) in 1.0 ml of the same medium for 1 hr at 37° C., after which the medium is aspirated and 1 ml of cold 0.1 M formic acid added to stop the reaction. The chromatographic separation of [^3H]-inositol phosphates ([^3H]-IPs) on an AG-1-X8 column is performed as previously described [J. Pharmacol. Expt. Ther. 286, 411 (1998)] with sequential washes with H2O and 50 mM ammonium formate, followed by elution of the total [^3H]-IPs fraction with 1.2 M ammonium formate containing 0.1 M formic acid. The eluate (4 ml) is collected, mixed with 15 ml scintillation fluid, and the total [^3H]-IPs determined by scintillation counting on a beta counter. Concentration-response data are analyzed by the sigmoidal fit function of the Origin Scientific Graphics software (Microcal Software, Northampton, Mass.) to determine agonist potency (EC50 value) and efficacy (Emax). Serotonin (5-HT) is used as a positive control (standard) agonist compound and the efficacy of test compounds is compared to that of 5-HT (set at 100%). The concentration of the compound needed to stimulate the production of [^3H]-IPs by 50% of the maximum response is termed the EC50 value.

[2] = molecular target: T2, human cloned 5-HT1A receptors (Homo sapiens, UniProt P08908); assay: 5-HT1A receptor binding assay ([3H]8-OH-DPAT); conditions: [3H]8-OH-DPAT, CHO cell membranes; read-out: IC50, nM (SEM) 5-HT1A receptor binding
T2 construct: purchased NEN (manufactured by Biosignal, Inc., Montreal, Canada); host or cells: CHO cells (membranes)
T2 sequence (P08908 1-422): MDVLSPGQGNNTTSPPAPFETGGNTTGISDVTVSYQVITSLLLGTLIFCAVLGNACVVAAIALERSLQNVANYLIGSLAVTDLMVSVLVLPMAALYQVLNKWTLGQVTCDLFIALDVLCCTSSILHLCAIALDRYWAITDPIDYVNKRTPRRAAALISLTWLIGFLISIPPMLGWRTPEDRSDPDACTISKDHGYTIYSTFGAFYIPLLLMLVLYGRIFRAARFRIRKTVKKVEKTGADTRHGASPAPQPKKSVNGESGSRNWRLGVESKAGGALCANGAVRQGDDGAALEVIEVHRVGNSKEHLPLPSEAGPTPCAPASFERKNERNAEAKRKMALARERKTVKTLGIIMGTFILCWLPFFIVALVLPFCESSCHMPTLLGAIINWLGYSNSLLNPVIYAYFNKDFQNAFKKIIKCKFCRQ
Experimental: 5-HT1A Receptor Binding Assay
5-HT1A binding studies were performed with human cloned receptors expressed in Chinese hamster ovary (CHO) cells using (^3H)8-OH DPAT as the ligand. Membranes from Chinese hamster ovary cells (CHO) expressing cloned 5-HT1A receptors (manufactured for NEN by Biosignal, Inc., Montreal, Canada) were homogenized in approximately 40 volumes of 50 mM Tris pH 7.4 for 5 sec. Drug dilutions were made using a Beckman Biomek 2000 robot (Beckman Instruments, Fullerton, Calif.). Incubations were conducted with membrane prep, test compounds, and 0.25 nM [^3H]8-OH-DPAT (NEN, Boston, Mass.) in the same buffer at 27° C. for 1 h. Assays were terminated by rapid vacuum filtration over Whatman GF/B glass fiber filters pre-soaked in 0.3% polyethyleneimine. Bound radioactivity was measured using liquid scintillation spectrometry. Data were analyzed using non-linear curve fitting programs (Sharif et al., J. Pharmac. Pharmacol. 51: 685-694, 1999).
Ligand binding studies can also be run using membrane preparations from calf and rat brain (local source) and human cortex membranes. Specific brain regions were dissected out, homogenized in 10 volumes of 0.32 M sucrose and centrifuged for 10 min at 700×g. The resulting supernatant was centrifuged at 43,500×g for 10 min and the pellet re-suspended in 50 mM Tris-HCl (pH 7.7, 25° C.) using a 10 sec polytron treatment. Aliquots were stored at −140° C. To remove endogenous serotonin, the preps were incubated at 37° C. for 10 min prior to the experiment. Assay incubations were terminated by rapid filtration over Whatman GF/C filters using a Brandel cell harvester. Ki values were calculated using the Cheng-Prusoff equation (De Vry et al., J. Pharm. Exper. Ther. 284:1082-1094, 1998.)

[3] = test system: intraocular pressure; assay: IOP response in lasered (hypertensive) eyes of conscious cynomolgus monkeys; assay type: in vivo, cynomolgus monkey; conditions: 300 μg topical ocular
Experimental: IOP Response in Lasered (Hypertensive) Eyes of Conscious Cynomolgus Monkeys
Intraocular pressure (IOP) was determined with an Alcon Pneumatonometer after light corneal anesthesia with 0.1% proparacaine. Eyes were washed with saline after each measurement. After a baseline IOP measurement, test compound was instilled in one 30 μL aliquot to the right eyes only of nine cynomolgus monkeys. Vehicle was instilled in the right eyes of six additional animals. Subsequent IOP measurements were taken at 1, 3, and 6 hours.

[4] = test system: intraocular pressure; conditions: monkey; ascribed to α1A receptor activity; cited from earlier work
[5] = test system: intraocular pressure; conditions: rabbits; cited from earlier work

| Structure (SMILES) | Emax [1] | EC50 [1] | IC50 [2] | Percent IOP Reduction ([3]; 1 hour after dose) | Percent IOP Reduction ([3]; 3 hours after dose) | Percent IOP Reduction ([3]; 6 hours after dose) | Effect on IOP [4] | Effect on IOP [5] |
| --- | --- | --- | --- | --- | --- | --- | --- | --- |
| CC(N)Cn1ccc2cc(Cl)ccc21.O=C(O)/C=C/C(=O)O (centres unmarked) [1-(2-aminopropyl) 5-chloroindole fumarate] | 104% | 1390 nM | 417 nM | 1.2% | 16% | 20.1% |  |  |
| COc1ccc2ccn(CC(C)N)c2c1.O=C(O)/C=C/C(=O)O (centres unmarked) [1-(2-aminopropyl) 6-methoxyindole fumarate] | 88% | 255 nM | 225 nM | 22.5% | 33.1% | 27.5% |  |  |
| COc1ccccc1N1CCN(CCCNc2c(C)c(=O)n(C)c(=O)n2C)CC1 [5-methylurapidil] |  |  |  |  |  |  | lowers IOP |  |
| CCCN(CCC)C1CCc2cccc(O)c2C1 (centres unmarked) [Compound 8-OH-DPAT, 8-hydroxydipropylaminotetralin] |  |  |  |  |  |  |  | reduces IOP |
